Reference: PubChem BioAssay AID1626 (SRMLSC, 2009)
pIC50: −log10 of the molar value.

System: M. tuberculosis H37Rv growth inhibition
Experiment: M. tuberculosis H37Rv growth inhibitors, H37Rv strain (AID 1626)
Settings: for IC90: measured here: IC90 against H37Rv; for CC50: measured here: Vero cell cytotoxicity

Compound | pIC50 | IC90 [µM] | CC50 [µM]
Cc1ccc(C2=Nc3ccccc3SC(c3cccc([N+](=O)[O-])c3)C2)cc1 (stereo not given) | 5.43 | 5.74 | 33
CN(C)CCCN(C(=O)CCc1ccccc1)c1nc2ccc(Br)cc2s1 | 4.65 | 24.2 | 16.7
Cc1[nH][nH]c(=O)c1C(c1ccc(-c2ccc(Cl)cc2)o1)c1c(C)[nH][nH]c1=O | 5.43 | 17 | > 40
COCC(=O)Nc1ccc(Br)c(C)c1 | – | > 100 | –
Cc1ccc(CN=c2c([N+](=O)[O-])nn(-c3cccc(Cl)c3)n2O)cc1 | 5.55 | 2.94 | –
COc1ccc(CCNc2cc(C)nc3c(-c4ccc(Cl)cc4)c(C)nn23)cc1OC | 6.00 | 5.53 | > 40
CC/C(=C\C(=O)c1cccnc1)Nc1ccc(C)c(C)c1 | – | – | > 40
CC(=O)n1cc(N(C(=O)CCl)c2ccccc2)c2ccccc21 | 5.51 | 7.33 | 0.792
CC(C)OC(=O)c1ccc(NC(=O)c2cncc(Br)c2)cc1 | – | > 100 | –
CCc1ccccc1NC(=O)c1cccc(NC(=O)/C=C/c2ccco2)c1 | – | – | > 40
CC(C)(C)c1nn(-c2ccccc2)c2[nH]c(=O)c(CNCc3ccc4c(c3)OCO4)cc12 | 4.95 | 13.8 | > 40
COc1ccc(C(=O)CNc2ccc3ccccc3c2)cc1 | 5.32 | > 100 | –
CCOC(=O)N1C/C(=C\c2ccccc2)C(=O)/C(=C/c2ccccc2)C1 | 5.68 | > 100 | 19.3
CC(=O)Nc1ccc(Nc2cc(C(C)C)nc3c(-c4ccccc4)c(C)nn23)cc1 | 5.29 | 9 | > 40
CCc1nc(N2CCCC(C)C2)c2oc3ccccc3c2n1 (stereo not given) | 4.77 | 23.8 | > 40
CSc1cccc(NC(=O)CSc2nnc(C)s2)c1 | 4.01 | > 100 | –
CCOc1ccc(NC(=O)CCN2CCN(c3ccccc3)CC2)cc1 | – | > 100 | –

Compound | pIC50 | IC90 [µM] | CC50 [µM]
Cc1nn(-c2ccc([N+](=O)[O-])cc2)c2c1C(c1ccc(OC(F)F)cc1)N1C(=N2)C(=O)Nc2ccccc21 (stereo not given) | 5.33 | > 100 | > 40
COc1cc(/C=N/NC(=Nc2ccc(C)cc2)c2nc3ccccc3s2)ccc1O | – | > 100 | > 40
COc1ccc(Nc2ccccc2N)cc1 | 5.98 | 2.46 | –
CCOc1ccc(NC(=O)N(C2CCCCCC2)C2CCN(C(C)=O)CC2)cc1 | – | > 100 | –
Cc1ccc(-n2nnnc2SC(C)C(=O)Nc2ccc(Cl)cn2)cc1 (stereo not given) | 4.78 | 29.1 | 26.7
CCOC(=O)COc1ccc2c(=O)cc(-c3ccccc3)oc2c1 | > 6.71 | 0.963 | –
c1ccc(C2=Nc3ccccc3OC2)cc1 | 5.33 | 8.31 | –
CCNC(=O)COC(=O)c1ccc(-c2nc3ccccc3s2)s1 | 5.12 | 15 | > 40
CCCCCCCOc1ccc(OC(=O)c2cccnc2)cc1 | 5.20 | > 100 | 15.4
Cc1cc(C)n(C(=O)c2ccc([N+](=O)[O-])cc2[N+](=O)[O-])n1 | 5.15 | 12.6 | –
O=C(COC(=O)Cc1ccccc1F)Nc1ccc2c(c1)OCO2 | – | > 100 | –
O=C(COc1ccc(Cl)cc1Cl)N1CCN(C/C=C/c2ccccc2)CC1 | 4.77 | 21.6 | > 40
O=c1cc(N=Nc2ccc(Cl)cc2)[nH]c(=O)[nH]1 | 4.89 | 14.5 | 7.51
O=C(Oc1cccc(-c2cnc3ccccc3n2)c1)c1ccco1 | 5.86 | > 100 | –
COc1cc(OC)c2c(-c3ccccc3)cc(=O)oc2c1C(CCN1CCCC(C)C1)c1ccc2c(c1)OCO2 (stereo not given) | 5.25 | 10.4 | 24.3
CC(C)(C)C(=O)/C=c1\s/c(=C\c2ccc(-c3ccc([N+](=O)[O-])cc3)o2)c(=O)n1CC(=O)NC(N)=O | – | > 100 | > 40
